# From ChEMBL document CHEMBL3769346, “Synthesis and SAR of calcitonin gene-related peptide (CGRP) antagonists containing substituted aryl-piperazines and piperidines” (Bioorg Med Chem Lett, 2016)
# The source made the active and inactive calls. No cut-off for these calls is given here.
# What was measured:
# [1] = biological target: CGRP receptor (CALCRL/RAMP1) (Homo sapiens); assay: Displacement of [125I]CGRP from CGRP receptor in human SK-N-MC cells after 2 hrs by scintillation counter
# [2] = Permeability of compound by PAMPA; format: ADME; conditions: read-out: permeability
# [3] = Permeability of compound across apical to basolateral side in human Caco2 cells; format: ADME, cell-based; conditions: Caco-2, read-out: permeability
# [4] = tested on: CGRP receptor (CALCRL/RAMP1) (Homo sapiens); assay: Antagonist activity at CGRP receptor (unknown origin)
Compound,IC50 [1] [nM],Papp [2] [×10⁻⁶ cm/s],Papp A→B [3] [×10⁻⁶ cm/s],Activity [4]
Cc1cc(C[C@@H](NC(=O)N2CCN(c3ccc(Cl)cc3)CC2)C(=O)N2CCC(N3CCCCC3)CC2)cc2cn[nH]c12,77,,,
Cc1cc(C[C@@H](NC(=O)N2CCC(c3ccccc3F)CC2)C(=O)N2CCC(N3CCCCC3)CC2)cc2cn[nH]c12,170,,,
Cc1cc(C[C@@H](NC(=O)N2CCC(c3ccc(Cl)cc3Cl)CC2)C(=O)N2CCC(N3CCCCC3)CC2)cc2cn[nH]c12,1.1,2.4,< 1.5,Active
Cc1cc(C[C@@H](NC(=O)N2CCN(c3ccccc3F)CC2)C(=O)N2CCC(N3CCCCC3)CC2)cc2cn[nH]c12,130,,,
Cc1cc(C[C@@H](NC(=O)N2CCN(c3ccc(Br)cc3)CC2)C(=O)N2CCC(N3CCCCC3)CC2)cc2cn[nH]c12,33,5.2,< 1.5,Active
Cc1cc(C[C@@H](NC(=O)N2CCN(c3ccc(F)cc3S(C)(=O)=O)CC2)C(=O)N2CCC(N3CCCCC3)CC2)cc2cn[nH]c12,2.9,,,
Cc1cc(C[C@@H](NC(=O)N2CCN(c3ccc(F)c(F)c3)CC2)C(=O)N2CCC(N3CCCCC3)CC2)cc2cn[nH]c12,97,,,
COC(=O)c1ccccc1N1CCN(C(=O)N[C@H](Cc2cc(C)c3[nH]ncc3c2)C(=O)N2CCC(N3CCCCC3)CC2)CC1,110,,,
Cc1cc(C[C@@H](NC(=O)N2CCN(c3ccc(-c4ccccc4)cc3)CC2)C(=O)N2CCC(N3CCCCC3)CC2)cc2cn[nH]c12,46,,,
Cc1cc(C[C@@H](NC(=O)N2CCN(c3ccccc3Br)CC2)C(=O)N2CCC(N3CCCCC3)CC2)cc2cn[nH]c12,12,3.5,5.6,Active
Cc1cc(C[C@@H](NC(=O)N2CCC(c3cc4ccccc4cc3Cl)CC2)C(=O)N2CCC(N3CCCCC3)CC2)cc2cn[nH]c12,0.23,5.7,< 1.5,Active
Cc1cc(C[C@@H](NC(=O)N2CCC(c3ccc(Cl)cc3)CC2)C(=O)N2CCC(N3CCCCC3)CC2)cc2cn[nH]c12,41,,,
Cc1ccc(C2CCN(C(=O)N[C@H](Cc3cc(C)c4[nH]ncc4c3)C(=O)N3CCC(N4CCCCC4)CC3)CC2)c(Cl)c1,16,12,< 1.5,Active
Cc1cc(C[C@@H](NC(=O)N2CCN(c3cccc(Cl)c3)CC2)C(=O)N2CCC(N3CCCCC3)CC2)cc2cn[nH]c12,19,5.2,,Active
Cc1cccc(C2CCN(C(=O)N[C@H](Cc3cc(C)c4[nH]ncc4c3)C(=O)N3CCC(N4CCCCC4)CC3)CC2)c1F,120,,,
Cc1cc(C[C@@H](NC(=O)N2CCC(c3cccc(Cl)c3)CC2)C(=O)N2CCC(N3CCCCC3)CC2)cc2cn[nH]c12,150,,,
Cc1cc(C[C@@H](NC(=O)N2CCC(c3ccc(Br)cc3)CC2)C(=O)N2CCC(N3CCCCC3)CC2)cc2cn[nH]c12,13,,,
Cc1cc(C[C@@H](NC(=O)N2CCN(c3ccccc3)CC2)C(=O)N2CCC(N3CCCCC3)CC2)cc2cn[nH]c12,44,,,

Compound,IC50 [1] [nM],Papp [2] [×10⁻⁶ cm/s],Papp A→B [3] [×10⁻⁶ cm/s],Activity [4]
Cc1cc(C[C@@H](NC(=O)N2CCC(c3cc4ccccc4cc3C#N)CC2)C(=O)N2CCC(N3CCCCC3)CC2)cc2cn[nH]c12,0.11,,,
CCOC(=O)c1ccc(N2CCN(C(=O)N[C@H](Cc3cc(C)c4[nH]ncc4c3)C(=O)N3CCC(N4CCCCC4)CC3)CC2)cc1,44,,,
Cc1ccc(C2CCN(C(=O)N[C@H](Cc3cc(C)c4[nH]ncc4c3)C(=O)N3CCC(N4CCCCC4)CC3)CC2)cc1,240,,,
Cc1cc(C[C@@H](NC(=O)N2CCC(c3cccc4ccccc34)CC2)C(=O)N2CCC(N3CCCCC3)CC2)cc2cn[nH]c12,430,,,
Cc1cc(C[C@@H](NC(=O)N2CCN(c3ccccc3C#N)CC2)C(=O)N2CCC(N3CCCCC3)CC2)cc2cn[nH]c12,8.9,,,
Cc1cc(C[C@@H](NC(=O)N2CCC(c3ccc(F)cc3F)CC2)C(=O)N2CCC(N3CCCCC3)CC2)cc2cn[nH]c12,92,,,
Cc1cc(C[C@@H](NC(=O)N2CCC(c3ccccc3Cl)CC2)C(=O)N2CCC(N3CCCCC3)CC2)cc2cn[nH]c12,9.8,,,
Cc1cc(C[C@@H](NC(=O)N2CCN(c3ccc(Cl)c(Cl)c3)CC2)C(=O)N2CCC(N3CCCCC3)CC2)cc2cn[nH]c12,12,,,
Cc1ccccc1C1CCN(C(=O)N[C@H](Cc2cc(C)c3[nH]ncc3c2)C(=O)N2CCC(N3CCCCC3)CC2)CC1,170,,,
Cc1cc(C[C@@H](NC(=O)N2CCC(c3ccc4ccccc4c3)CC2)C(=O)N2CCC(N3CCCCC3)CC2)cc2cn[nH]c12,,6.1,< 1.5,
Cc1cc(C[C@@H](NC(=O)N2CCN(c3ccc(S(C)(=O)=O)cc3Cl)CC2)C(=O)N2CCC(N3CCCCC3)CC2)cc2cn[nH]c12,7,,,
Cc1cc(C[C@@H](NC(=O)N2CCC(c3ccc(C(F)(F)F)cc3C(F)(F)F)CC2)C(=O)N2CCC(N3CCCCC3)CC2)cc2cn[nH]c12,,7.1,< 1.5,
Cc1cc(C[C@@H](NC(=O)N2CCC(c3cccc(Br)c3)CC2)C(=O)N2CCC(N3CCCCC3)CC2)cc2cn[nH]c12,130,,,
Cc1cc(C[C@@H](NC(=O)N2CCC(N3Cc4cccc(F)c4NC3=O)CC2)C(=O)N2CCC(N3CCCCC3)CC2)cc2cn[nH]c12,,,< 1.5,
Cc1cc(C[C@@H](NC(=O)N2CCN(c3ccc(C#N)cc3)CC2)C(=O)N2CCC(N3CCCCC3)CC2)cc2cn[nH]c12,99,,,
Cc1cc(C[C@@H](NC(=O)N2CCC(c3ccccc3)CC2)C(=O)N2CCC(N3CCCCC3)CC2)cc2cn[nH]c12,460,,,
Cc1cc(C[C@@H](NC(=O)N2CCN(c3ccc(S(C)(=O)=O)cc3F)CC2)C(=O)N2CCC(N3CCCCC3)CC2)cc2cn[nH]c12,34,,,
Cc1cc(C[C@@H](NC(=O)N2CCN(c3ccc(Cl)cc3Cl)CC2)C(=O)N2CCC(N3CCCCC3)CC2)cc2cn[nH]c12,4.3,17,< 1.5,Active
